EC50 data for 57 compounds are collected here from patent US8940896B2, “Tetra-cyclic carboline derivatives useful in the inhibition of angiogenesis” (PTC Therapeutics, Inc., priority 2004, dated 2015).

For this assay, the system named is VEGF. Nature of the assay: Hypoxia-inducible endogenous VEGF expression, VEGF ELISA assay. The format is cell-based. Conditions: HeLa cells, hypoxic conditions (1% O2, 5% CO2), VEGF in conditioned media. The procedure:
The ability of the compounds of the invention to modulate hypoxia-inducible endogenous VEGF expression may be analyzed as follows. VEGF protein levels may be monitored by an ELISA assay (R&D Systems). Briefly, HeLa cells may be cultured for 24-48 hours under hypoxic conditions (1% O2, 5% CO2, balanced with nitrogen) in the presence or absence of a compound of the invention. The conditioned media may then be assayed by ELISA, and the concentration of VEGF calculated from the standard ELISA curve of each assay.
A dose-response analysis may be performed using the ELISA assay and conditions described above. The conditions for the dose-response ELISA are analogous to those described above. A series of, e.g., seven different concentrations may be analyzed. In parallel, a dose-response cytotoxicity assay may be performed using CellTiter Glo (Promega) under the same conditions as the ELISA to ensure that the inhibition of VEGF expression was not due to the cytotoxicity. Dose-response curves may be plotted using percentage inhibition versus concentration of the compound, and EC50 and CC50 values may be generated for each compound with the maximal inhibition set as 100% and the minimal inhibition as 0%.
Background: ELISA stands for enzyme-linked immunosorbent assay.

As to `COc1ccc(C2c3[nH]c4ccc(Br)cc4c3CC3C(=O)N(c4cccc(OC)c4)C(=S)N32)cc1` (stereo not drawn) [Compound 142], the EC50 (usually the concentration at which the effect is half-maximal) (Homo sapiens, HeLa) was under 8 nM. On to `COc1ccc(C2c3[nH]c4ccc(Br)cc4c3CC3C(=O)N(CC4CCCO4)C(=S)N32)cc1` (stereo not drawn) [Compound 143], for which the EC50 (Homo sapiens, HeLa) was 8 to 40 nM. `CCOC(=O)C(C)N1C(=O)C2Cc3c([nH]c4ccc(Br)cc34)C(c3ccc(OC)cc3)N2C1=S` (stereo not drawn) [Compound 144]: under “Homo sapiens, HeLa”, the EC50 is 8 to 40 nM.

The compound `CCOC(=O)CC(C)N1C(=O)C2Cc3c([nH]c4ccc(Br)cc34)C(c3ccc(OC)cc3)N2C1=S` (stereo not drawn) [Compound 145] displayed a half-maximal effective concentration (EC50) (Homo sapiens, HeLa) of under 8 nM. As to `COc1ccc(C2c3[nH]c4ccc(Br)cc4c3CC3C(=O)N(c4cccc(C#N)c4)C(=S)N32)cc1` (stereo not drawn) [Compound 146], the EC50 (Homo sapiens, HeLa) was under 8 nM. On the same count and under the same terms, to `COC(=O)N1C(=O)C2Cc3c([nH]c4ccc(Br)cc34)C(c3ccc(OC)cc3)N2C1=S` (stereo not drawn) [Compound 147] belongs 40 to 200 nM; to `COCCOc1ccc([C@@H]2c3[nH]c4ccc(Br)cc4c3C[C@H]3C(=O)N(C4CCCCC4)C(=S)N23)cc1` [Compound 148], 200 to 1000 nM. Still for that read-out and setting: the same measure for `O=C1C2Cc3c([nH]c4ccc(Br)cc34)C(c3ccc(OCCCn4ccnn4)cc3)N2C(=S)N1c1ccc(Cl)cc1` (stereo not drawn) [Compound 149]: under 8 nM; for `CC(C)N1C(=O)C2Cc3c([nH]c4ccc(Br)cc34)C(c3ccc(OCCCN4CCCC4)cc3)N2C1=S` (stereo not drawn) [Compound 150]: under 8 nM; for `CC(C)N1C(=O)C2Cc3c([nH]c4ccc(Br)cc34)C(c3ccc(OCCCN4CCCCC4)cc3)N2C1=S` (stereo not drawn) [Compound 151]: under 8 nM. Same read-out and setting: the same measure for `CC(=O)N1CCN(CCCOc2ccc(C3c4[nH]c5ccc(Br)cc5c4CC4C(=O)N(C(C)C)C(=S)N43)cc2)CC1` (stereo not drawn) [Compound 152]: under 8 nM; for `CC(C)N1C(=O)C2Cc3c([nH]c4ccc(Br)cc34)C(c3ccc(OCCCN4CCOCC4)cc3)N2C1=S` (stereo not drawn) [Compound 153]: 8 to 40 nM; for `CCN(CC)CCCOc1ccc(C2c3[nH]c4ccc(Br)cc4c3CC3C(=O)N(C(C)C)C(=S)N32)cc1` (stereo not drawn) [Compound 154]: under 8 nM.

Where the note is “Homo sapiens, HeLa”, `CC(C)NCCCOc1ccc(C2c3[nH]c4ccc(Br)cc4c3CC3C(=O)N(C(C)C)C(=S)N32)cc1` (stereo not drawn) [Compound 155] showed an EC50 of under 8 nM. Same read-out and setting: the same measure for `COCCN(CCCOc1ccc(C2c3[nH]c4ccc(Br)cc4c3CC3C(=O)N(C(C)C)C(=S)N32)cc1)CCOC` (stereo not drawn) [Compound 156]: 8 to 40 nM; for `CC(C)N1C(=O)C2Cc3c([nH]c4ccc(Br)cc34)C(c3ccc(OCCCN4CCSCC4)cc3)N2C1=S` (stereo not drawn) [Compound 157]: 40 to 200 nM. On the same count and under the same terms, to `COCCN(C)CCCOc1ccc(C2c3[nH]c4ccc(Br)cc4c3CC3C(=O)N(C(C)C)C(=S)N32)cc1` (stereo not drawn) [Compound 158] belongs under 8 nM. Still for that read-out and setting: to `CC(C)N1C(=O)C2Cc3c([nH]c4ccc(Br)cc34)C(c3ccc(OCCCN4CCN(C)CC4)cc3)N2C1=S` (stereo not drawn) [Compound 159] belongs under 8 nM. In turn, `CC(C)N1C(=O)C2Cc3c([nH]c4ccc(Br)cc34)C(c3ccc(OCCCn4ccnc4)cc3)N2C1=S` (stereo not drawn) [Compound 160] gave a concentration for a half-maximal effect (EC50) (Homo sapiens, HeLa) of 8 to 40 nM. Still for that read-out and setting: the same measure for `COc1ccc(C2c3[nH]c4ccc(Br)cc4c3CC3C(=O)N(c4cccc(C(F)(F)F)c4)C(=S)N32)cc1` (stereo not drawn) [Compound 162]: under 8 nM; for `COc1ccc(C2c3[nH]c4ccc(Br)cc4c3CC3C(=O)N(c4ccc(C(F)(F)F)cc4)C(=S)N32)cc1` (stereo not drawn) [Compound 163]: under 8 nM. `COc1ccc(C2c3[nH]c4ccc(Br)cc4c3CC3C(=O)N(c4ccccc4Cl)C(=S)N32)cc1` (stereo not drawn) [Compound 164]: the EC50 (Homo sapiens, HeLa) lay in the range of 40 to 200 nM. Same read-out and setting: to `COc1ccc(C2c3[nH]c4ccc(Br)cc4c3CC3C(=O)N(c4cccc(Cl)c4)C(=S)N32)cc1` (stereo not drawn) [Compound 165] belongs under 8 nM. Still for that read-out and setting: to `COc1ccc(C2c3[nH]c4ccc(Br)cc4c3CC3C(=O)N(c4ccccc4F)C(=S)N32)cc1` (stereo not drawn) [Compound 166] belongs 8 to 40 nM; to `COc1ccc(C2c3[nH]c4ccc(Br)cc4c3CC3C(=O)N(c4cccc(F)c4)C(=S)N32)cc1` (stereo not drawn) [Compound 167], under 8 nM.

In turn, `COc1ccc(C2c3[nH]c4ccc(Br)cc4c3CC3C(=O)N(c4ccc(F)cc4)C(=S)N32)cc1` (stereo not drawn) [Compound 168] came in with an EC50 (Homo sapiens, HeLa) of under 8 nM.

`COc1ccc(C2c3[nH]c4ccc(Br)cc4c3CC3C(=O)N(c4ccccc4C)C(=S)N32)cc1` (stereo not drawn) [Compound 169]: under “Homo sapiens, HeLa”, the concentration for a half-maximal effect (EC50) is 40 to 200 nM. On the same count and under the same terms, to `COc1ccc(C2c3[nH]c4ccc(Br)cc4c3CC3C(=O)N(c4cccc(C)c4)C(=S)N32)cc1` (stereo not drawn) [Compound 170] belongs under 8 nM; to `COc1ccc(C2c3[nH]c4ccc(Br)cc4c3CC3C(=O)N(c4ccc(C)cc4)C(=S)N32)cc1` (stereo not drawn) [Compound 171], under 8 nM; to `COc1ccc(C2c3[nH]c4ccc(Br)cc4c3CC3C(=O)N(c4ccc(F)cc4F)C(=S)N32)cc1` (stereo not drawn) [Compound 172], under 8 nM. As for `COc1ccc(C2c3[nH]c4ccc(Br)cc4c3CC3C(=O)N(c4ccc(Cl)c(C(F)(F)F)c4)C(=S)N32)cc1` (stereo not drawn) [Compound 173], the EC50 (Homo sapiens, HeLa) is under 8 nM.

Turning to `COc1ccc(C2c3[nH]c4ccc(Br)cc4c3CC3C(=O)N(c4ccc(F)cc4Cl)C(=S)N32)cc1` (stereo not drawn) [Compound 174], for the setting “Homo sapiens, HeLa”, the concentration for a half-maximal effect (EC50) fell in the range of 40 to 200 nM.

Under “Homo sapiens, HeLa”, `COc1ccc(C2c3[nH]c4ccc(Br)cc4c3CC3C(=O)N(c4cccc(Br)c4)C(=S)N32)cc1` (stereo not drawn) [Compound 175] displayed an EC50 of under 8 nM. Still for that read-out and setting: the same measure for `COc1ccc(C2c3[nH]c4ccc(Br)cc4c3CC3C(=O)N(c4ccc([N+](=O)[O-])cc4)C(=S)N32)cc1` (stereo not drawn) [Compound 176]: under 8 nM; for `COc1ccc(C2c3[nH]c4ccc(Br)cc4c3CC3C(=O)N(c4ccc(OC)cc4C)C(=S)N32)cc1` (stereo not drawn) [Compound 177]: 40 to 200 nM.

As to `COc1ccc(C2c3[nH]c4ccc(Br)cc4c3CC3C(=O)N(C(=O)c4ccccc4)C(=S)N32)cc1` (stereo not drawn) [Compound 178], the EC50 (Homo sapiens, HeLa) was 40 to 200 nM.

The compound `COc1ccc(C2c3[nH]c4ccc(Br)cc4c3CC3C(=O)N(c4ccc5c(c4)OCO5)C(=S)N32)cc1` (stereo not drawn) [Compound 179] showed a concentration for a half-maximal effect (EC50) (Homo sapiens, HeLa) of under 8 nM. Same read-out and setting: the same measure for `COc1ccc(C2c3[nH]c4ccc(Br)cc4c3CC3C(=O)N(Cc4ccco4)C(=S)N32)cc1` (stereo not drawn) [Compound 180]: under 8 nM; for `COc1ccc(C2c3[nH]c4ccc(Br)cc4c3CC3C(=O)N(CCc4ccccc4)C(=S)N32)cc1` (stereo not drawn) [Compound 181]: under 8 nM. Same read-out and setting: to `COc1ccc(C2c3[nH]c4ccc(Br)cc4c3CC3C(=O)N(c4cccc(OC(C)=O)c4)C(=S)N32)cc1` (stereo not drawn) [Compound 182] belongs under 8 nM.

Regarding `COc1ccc(C2c3[nH]c4ccc(Br)cc4c3CC3C(=O)N(c4ccccc4C(C)C)C(=S)N32)cc1` (stereo not drawn) [Compound 183], for the setting “Homo sapiens, HeLa”, the concentration giving a half-maximal response (EC50) lay in the range of 40 to 200 nM.

`CC(C)N1C(=O)C2Cc3c([nH]c4ccc(Br)cc34)C(c3ccc(OCCCn4cncn4)cc3)N2C1=S` (stereo not drawn) [Compound 184]: the 50% effective concentration (EC50) (Homo sapiens, HeLa) is under 8 nM.

The compound `COc1ccc(C2c3[nH]c4ccc(Br)cc4c3CC3C(=O)N(C4CCCCC4)C(=S)N32)cc1` (stereo not drawn) [Compound 185] registered an EC50 of under 8 nM. The same measure, in the same setting: the same measure for `COc1ccc(C2c3[nH]c4ccc(Br)cc4c3CC3C(=O)N(C4CCCCC4)C(=S)N32)cc1` (stereo not drawn) [Compound 186]: under 8 nM. The same measure, in the same setting: to `COc1ccc(C2c3[nH]c4ccc(Br)cc4c3CC3C(=O)N(C4CCCCC4)C(=S)N32)cc1` (stereo not drawn) [Compound 187] belongs over 1000 nM.

Under “Homo sapiens, HeLa”, `O=C1C2Cc3c([nH]c4ccc(Br)cc34)C(c3ccc(OCCCCl)cc3)N2C(=S)N1c1ccc(Cl)cc1` (stereo not drawn) [Compound 188] returned a 50% effective concentration (EC50) of under 8 nM. Regarding `O=C1C2Cc3c([nH]c4ccc(Br)cc34)C(c3ccc(OCCCN4CCCC4)cc3)N2C(=S)N1c1ccc(Cl)cc1` (stereo not drawn) [Compound 189], the half-maximal effective concentration (EC50) (Homo sapiens, HeLa) was in the range of 8 to 40 nM. With `O=C1C2Cc3c([nH]c4ccc(Br)cc34)C(c3ccc(OCCCN4CCCCC4)cc3)N2C(=S)N1c1ccc(Cl)cc1` (stereo not drawn) [Compound 190], the EC50 (Homo sapiens, HeLa) was in the range of 8 to 40 nM.

Regarding `O=C1C2Cc3c([nH]c4ccc(Br)cc34)C(c3ccc(OCCCN4CCOCC4)cc3)N2C(=S)N1c1ccc(Cl)cc1` (stereo not drawn) [Compound 192], the concentration for a half-maximal effect (EC50) (Homo sapiens, HeLa) is under 8 nM. For the setting “Homo sapiens, HeLa”, `CCN(CC)CCCOc1ccc(C2c3[nH]c4ccc(Br)cc4c3CC3C(=O)N(c4ccc(Cl)cc4)C(=S)N32)cc1` (stereo not drawn) [Compound 193] returned a concentration giving a half-maximal response (EC50) of 8 to 40 nM. Still for that read-out and setting: to `CC(C)NCCCOc1ccc(C2c3[nH]c4ccc(Br)cc4c3CC3C(=O)N(c4ccc(Cl)cc4)C(=S)N32)cc1` (stereo not drawn) [Compound 194] belongs 8 to 40 nM.

For `O=C1C2Cc3c([nH]c4ccc(Br)cc34)C(c3ccc(OCCCN4CCSCC4)cc3)N2C(=S)N1c1ccc(Cl)cc1` (stereo not drawn) [Compound 196], the EC50 (Homo sapiens, HeLa) was under 8 nM.

Consider `CCOCN(C)CCCOc1ccc(C2c3[nH]c4ccc(Br)cc4c3CC3C(=O)N(c4ccc(Cl)cc4)C(=S)N32)cc1` (stereo not drawn) [Compound 197], for which, where the note is “Homo sapiens, HeLa”, the EC50 is 8 to 40 nM. The compound `CN1CCN(CCCOc2ccc(C3c4[nH]c5ccc(Br)cc5c4CC4C(=O)N(c5ccc(Cl)cc5)C(=S)N43)cc2)CC1` (stereo not drawn) [Compound 198] showed an EC50 (Homo sapiens, HeLa) of under 8 nM. Same read-out and setting: to `O=C1C2Cc3c([nH]c4ccc(Br)cc34)C(c3ccc(OCCCn4ccnc4)cc3)N2C(=S)N1c1ccc(Cl)cc1` (stereo not drawn) [Compound 199] belongs under 8 nM.

On to `COc1ccc(C2c3[nH]c4ccc(Br)cc4c3CC3C(=O)N(c4ccc(C(=O)O)cc4)C(=S)N32)cc1` (stereo not drawn) [Compound 200], for which, for the setting “Homo sapiens, HeLa”, the EC50 fell in the range of 8 to 40 nM. On the same count and under the same terms, to `COc1ccc(C2c3[nH]c4ccc(Br)cc4c3CC3C(=O)N(Cc4ccc(Cl)cc4)C(=S)N32)cc1` (stereo not drawn) [Compound 201] belongs under 8 nM.
